The values below come from patent publication US4235996A, “Bis(2-imida zolin-2-ylhydrazone)-9,10-dihydro-9,10-anthracenedicarboxaldehydes” (American Cyanamid Company, priority 1978, dated 1980).

Structures are written as SMILES. ≈ marks a conversion by molar mass, not a printed value. Where “and” joins values, the source holds several entries; their conditions need not be identical. Identical values can stand only once. Counter-ions that a name gives are not always drawn.

For one assay, the system named is melanotic melanoma B16. Put plainly: Melanotic Melanoma B16 test (survival of transplanted mice). It counts as in vivo, C57BC/6 mice. The method, then:
The animals used are C57BC/6 mice, all of the same sex, weighing a minimum of 17 g. and all within a 3 g. weight range. There are normally 10 animals per test group. A one-gram portion of melanotic melanoma B16 tumor is homogenized in 10 ml. of cold balanced salt solution and a 0.5 ml. aliquot of the homogenate is implanted intraperitoneally into each of the test mice. The test compounds are administered intraperitoneally on days one through 9 (relative to tumor inoculation) at various doses. The animals are weighed and survivors are recorded on a regular basis for 60 days. The median survival time and the ratio of survival time for treated (T)/control (C) animals are calculated. The positive control compound is 5-fluorouracil given as a 20 mg./kg. injection. The results of this test with representative compounds of the present invention appear in Table II below. The criterion for efficacy is T/C×100≥125%.

The test system of assay [1] is lymphocytic leukemia P388. The assay can be described thus: Lymphocytic leukemia P388 test (survival of transplanted mice). It is filed as in vivo. How it is done: Lymphocytic leukemia P388 test
The animals used are mice, all of one sex, weighing a minimum of 18 g. and all within a 3 gram weight range. There are 5 or 6 animals per test group. The tumor transplant is by intraperitoneal injection of 0.1 ml. or 0.5 ml. of dilute ascitic fluid containing 10^6 cells of lymphocytic leukemia p388. The test compounds are administered intraperitoneally on days one, 5 and 9 (relative to tumor inoculation) at various doses. The animals are weighed and survivors are recorded on a regular basis for 60 days. The median survival time and the ratio of survival time for treated (T)/control (C) animals are calculated. The positive control compound is 5-fluorouracil given as an intraperitoneal injection on days one, 5 and 9. […] The criterion for efficacy is T/C×100≥125%.

In assay [2] the test system is Staphylococcus aureus Q 74-11. The assay can be described thus: Antibacterial spectrum, agar-dilution streak-plate technique. It counts as cell-based. The conditions noted are these: 37° C.; for MIC: Staphylococcus aureus, Q7411, 18 h, read-out: Minimal Inhibitory Concentration. The method, then:
(§1) The antibacterial spectrum, in terms of the concentration required to inhibit the growth of various typical bacteria, was determined in a standard manner by the agar-dilution streak-plate technique. A Steers multiple inocula replicator was used with incubation at 37° C. for 18 hours in Mueller-Ninton agar. The results for typical compounds of this invention are set forth in Table III below as the minimal inhibitory concentration in micrograms per milliliter.

The test system of assay [3] is Staphylococcus aureus OSU 75-2. Described as above. It counts as cell-based. The conditions noted are these: OSU752, 37° C., 18 hours, read-out: Minimal Inhibitory Concentration. How it is done:
as §1

A further assay deals with Enterococcus SM 77-15. The description is as above. It counts as cell-based. The conditions noted are these: SM7715, 37° C., 18 hours, read-out: Minimal Inhibitory Concentration. The method, then:
as §1

The test system of assay [4] is Staphylococcus aureus St. Paul (NYC 78-1). The assay is described as above. It counts as cell-based. The conditions noted are these: 37° C., 18 hours, read-out: Minimal Inhibitory Concentration. The method, then:
as §1

Where [5] appears, read: 1.5 mg./kg., i.p. days one through 9.
[6] abbreviates: 1.5 mg./kg., i.p. days one through 9, efficacy criterion ≥125%.
Where [7] appears, read: 3 mg./kg., i.p. days one through 9.
The mark [8] stands for this setting: 3 mg./kg., i.p. days one through 9, efficacy criterion ≥125%.
Setting [9] is: 6 mg./kg., i.p. days one through 9.
Setting [10] is: 6 mg./kg., i.p. days one through 9, efficacy criterion ≥125%.
[11] abbreviates: 12 mg./kg., i.p. days one through 9.
The mark [12] stands for this setting: 12 mg./kg., i.p. days one through 9, efficacy criterion ≥125%.
[13] abbreviates: 6.25 mg./kg., i.p. days 1, 5 and 9, efficacy criterion ≥125%.
Where [14] appears, read: 12.5 mg./kg., i.p. days 1, 5 and 9, efficacy criterion ≥125%.
The mark [15] stands for this setting: 3.12 mg./kg., i.p. days 1, 5 and 9.
Where [16] appears, read: 3.12 mg./kg., i.p. days 1, 5 and 9, efficacy criterion ≥125%.
Setting [17] is: 6.25 mg./kg., i.p. days 1, 5 and 9.
Setting [18] is: 12.5 mg./kg., i.p. days 1, 5 and 9.
Where [19] appears, read: 25 mg./kg., i.p. days 1, 5 and 9.
Where [20] appears, read: 25 mg./kg., i.p. days 1, 5 and 9, efficacy criterion ≥125%.
The mark [21] stands for this setting: 50 mg./kg., i.p. days 1, 5 and 9.
Where [22] appears, read: 50 mg./kg., i.p. days 1, 5 and 9, efficacy criterion ≥125%.
[23] abbreviates: 20 mg./kg. injection (positive control).
The mark [24] stands for this setting: 40 mg./kg., i.p. days 1, 5 and 9 (positive control).
[25] abbreviates: 60 mg./kg., i.p. days 1, 5 and 9 (positive control).

Take `C(=NNC1=NCCN1)C1c2ccccc2C(C=NNC2=NCCN2)c2ccccc21` (centres unmarked) [Bis(2-imidazolin-2-ylhydrazone)-9,10-dihydro-9,10-anthracenedicarboxaldehyde dihydrochloride]: the “Median Survival” value stood at 21.0 days with melanotic melanoma B16 (setting [5]); 22.0 days with melanotic melanoma B16 (setting [7]); 25.0 days with melanotic melanoma B16 (setting [9]); 32.0 days with melanotic melanoma B16 (setting [11]); 13 days in assay [1] (6.25 mg./kg., i.p. days 1, 5 and 9, dihydrochloride); 16 days in assay [1] (12.5 mg./kg., i.p. days 1, 5 and 9, dihydrochloride). Further, the “T/C × 100” value with melanotic melanoma B16 (setting [6]) stood at 131%; with melanotic melanoma B16 (setting [8]), 138%; with melanotic melanoma B16 (setting [10]), 156%; in the assay with melanotic melanoma B16 (setting [12]) it was 200%; in assay [1] (setting [13]), 129%; in assay [1] (setting [14]), 152%.
`Clc1ccc2c(c1)C(C=NNC1=NCCN1)c1ccccc1C2C=NNC1=NCCN1` (centres unmarked) [2-Chloro-bis(2-imidazolin-2-ylhydrazone)-9,10-dihydro-9,10-anthracenedicarboxaldehyde dihydrochloride]: the “Median Survival” value in assay [1] (setting [15]) turned out to be 17.5 days; in assay [1] (setting [17]) it was 18.5 days; in assay [1] (setting [18]), 18.0 days; in assay [1] (setting [19]), 18.0 days; in assay [1] (setting [21]), 20.0 days. Further, the “T/C × 100” value in assay [1] (setting [16]) is 175%; in assay [1] (setting [13]) it was 185%; in assay [1] (setting [14]), 180%; in assay [1] (setting [20]) it was 180%; in assay [1] (setting [22]), 200%.
As for `O=c1[nH]cc(F)c(=O)[nH]1` [5-Fluorouracil, reference compound], the “Median Survival” value was 30 days and 28.5 days in the assay with melanotic melanoma B16 (setting [23]); 19.0 days and 18 days in assay [1] (setting [24]); 15.0 days and 18.5 days in assay [1] (setting [25]). In addition, the “T/C × 100” value in the assay with melanotic melanoma B16 (setting [23]) was 187% and 168%; in assay [1] (setting [24]), 181% and 164%; in assay [1] (setting [25]) it was 158% and 185%; in assay [1] (mouse, in vivo, ip) it was 158.
As for `COc1ccc(OC)c2c1C(C=NNC1=NCCN1)c1ccccc1C2C=NNC1=NCCN1` (centres unmarked) [Bis-(2-imidazolin-2-ylhydrazone)-1,4-dimethoxy-9,10-dihydro-9,10-anthracenedicarboxaldehyde dihydrochloride], in assay [2] (18 hours, dihydrochloride), the “Minimal Inhibitory Concentration” value is 128 µg/mL.
Regarding `Clc1cccc2c1C(C=NNC1=NCCN1)c1ccccc1C2C=NNC1=NCCN1` (centres unmarked) [1-Chloro-bis(2-imidazolin-2-ylhydrazone)-9,10-dihydro-9,10-anthracenedicarboxaldehyde dihydrochloride], the “Median Survival” value stood at 22.0 days with melanotic melanoma B16 (setting [7]); 25.5 days in the assay on melanotic melanoma B16 (setting [9]); 31.0 days in the assay on melanotic melanoma B16 (setting [11]); 15.5 days in assay [1] (setting [15]); 16.5 days in assay [1] (setting [17]); 19.5 days in assay [1] (setting [18]). Besides, the “Median Survival” value in assay [1] (setting [19]) is 21.0 days. The “T/C × 100” value was found to be 129% in the assay on melanotic melanoma B16 (setting [8]); 150% in the assay on melanotic melanoma B16 (setting [10]); 182% with melanotic melanoma B16 (setting [12]); 163% in assay [1] (setting [16]); 174% in assay [1] (setting [13]); 205% in assay [1] (setting [14]). In assay [1] (setting [20]), the “T/C × 100” value amounted to 221%.
On to `Cc1ccc2c(c1)C(C=NNC1=NCCN1)c1ccccc1C2C=NNC1=NCCN1` (centres unmarked) [2-Methyl-bis(2-imidazolin-2-ylhydrazone)-9,10-dihydro-9,10-anthracenedicarboxaldehyde dihydrochloride], for which the “Median Survival” value came to 24.0 days with melanotic melanoma B16 (setting [5]); 25.0 days in the assay with melanotic melanoma B16 (setting [7]); 28.0 days in the assay on melanotic melanoma B16 (setting [9]); 33.5 days in the assay with melanotic melanoma B16 (setting [11]); 13.5 days in assay [1] (setting [15]); 14.5 days in assay [1] (setting [17]). Also, the figures for the “Median Survival” value in assay [1] (setting [18]), in assay [1] (setting [19]) and in assay [1] (setting [21]) were 16.0 days, 16.0 days and 19.0 days, respectively. The “T/C × 100” value in the assay on melanotic melanoma B16 (setting [6]) worked out at 141%; in the assay with melanotic melanoma B16 (setting [8]), 147%; in the assay with melanotic melanoma B16 (setting [10]), 165%; with melanotic melanoma B16 (setting [12]), 197%; in assay [1] (setting [16]), 142%; in assay [1] (setting [13]), 153%. In addition, the “T/C × 100” value is 168% in assay [1] (setting [14]), 168% in assay [1] (setting [20]) and 200% in assay [1] (setting [22]).
For the molecule `COc1ccc(OC)c2c1C(C=NNC1=NCCN1)c1ccccc1C2C=NNC1=NCCN1` (centres unmarked) [1,4-Dimethoxy-bis-(2-imidazolin-2-ylhydrazone)-9,10-dihydro-9,10-anthracenedicarboxaldehyde], the MIC in assay [2] was found to be 64 µg/mL (≈ 139 µM); in assay [3] it was 128 µg/mL (≈ 278 µM); in the assay on Enterococcus SM 77-15, 256 µg/mL (≈ 556 µM); in assay [4] it was 128 µg/mL (≈ 278 µM).
As for `C(=NNC1=NCCN1)C1c2ccccc2C(C=NNC2=NCCN2)c2ccccc21` (centres unmarked) [Bis(2-imidazolin-2-ylhydrazone)-9,10-dihydro-9,10-anthracenedicarboxaldehyde], the “Median Survival” value in assay [1] (setting [15]) stood at 14 days; in assay [1] (setting [17]) it was 16.5 days; in assay [1] (setting [18]), 16.5 days; in assay [1] (setting [19]), 17.5 days; in assay [1] (setting [21]), 20 days; in assay [1] (100 mg./kg., i.p. days 1, 5 and 9), 19.5 days. The “Median Survival” value in assay [1] (200 mg./kg., i.p. days 1, 5 and 9) turned out to be 23 days; in assay [1] (400 mg./kg., i.p. days 1, 5 and 9) it was 25 days. Moreover, the “T/C × 100” value in assay [1] (setting [16]) worked out at 127%; in assay [1] (setting [13]), 150%; in assay [1] (setting [14]), 150%; in assay [1] (setting [20]) it was 159%; in assay [1] (setting [22]) it was 182%; in assay [1] (100 mg./kg., i.p. days 1, 5 and 9, efficacy criterion ≥125%) it was 177%. The “T/C × 100” value in assay [1] (400 mg./kg., i.p. days 1, 5 and 9, efficacy criterion ≥125%) turned out to be 227%; in assay [1] (mouse, in vivo, ip), 209. Besides, the MIC in assay [2] was determined as 32 µg/mL (≈ 79.9 µM); in assay [3] it was 128 µg/mL (≈ 320 µM); in the assay with Enterococcus SM 77-15, 16 µg/mL (≈ 40 µM); in assay [4], 64 µg/mL (≈ 160 µM).
